Values of other authors in US20030073069A1, “Drug rescue by redesign of ADMET/PK properties” (priority 2001, published 2003).
Where two headings read alike, the source gives them in different places.

Experiments:
[1] = test system: P450
[2] = test system: P450; conditions: induction of a P450

Structure (SMILES) | No. of currently known drug interactions that involve the compound, Inhibition ([1]; inhibition of a P450) | also measured
CC(=O)CC(c1ccc([N+](=O)[O-])cc1)c1c(O)c2ccccc2oc1=O (centres unmarked) [acenocoumarol] | 1 | –
CC(=O)Nc1ccc(O)cc1 [acetaminophen] | – | No. of currently known drug interactions that involve the compound, Induction [2]: 4
CC(=O)c1ccc2c(c1)N(CCCN1CCN(CCO)CC1)c1ccccc1S2 [acetophenazine] | 1 | –
Clc1ccc2c(c1)C(N1CCNCC1)=Nc1ccccc1O2 [amoxapine] | 3 | –
COc1ccc(CCN2CCC(Nc3nc4ccccc4n3Cc3ccc(F)cc3)CC2)cc1 [astemizole] | 10 | –
CC(C)COCC(CN(Cc1ccccc1)c1ccccc1)N1CCCC1 (centres unmarked) [bepridil] | 1 | –
C[C@H]1C[C@H]2[C@@H]3CCC4=CC(=O)C=C[C@]4(C)[C@@]3(F)[C@@H](O)C[C@]2(C)[C@@]1(O)C(=O)CO [betamethasone] | – | No. of currently known drug interactions that involve the compound, Induction [2]: 15
O=C1CC2(CCCC2)CC(=O)N1CCCCN1CCN(c2ncccn2)CC1 [buspirone] | – | No. of currently known drug interactions that involve the compound, Induction [2]: 2
COCc1c(C(C)C)nc(C(C)C)c(/C=C/[C@@H](O)C[C@@H](O)CC(=O)O)c1-c1ccc(F)cc1 [cerivastatin] | 5 | –
CCN(CC)CCCC(C)Nc1ccnc2cc(Cl)ccc12 (centres unmarked) [chloroquine] | 1 | –
CN(C)CCCN1c2ccccc2Sc2ccc(Cl)cc21 [chlorpromazine] | 1 | –
COc1cc(N)c(Cl)cc1C(=O)NC1CCN(CCCOc2ccc(F)cc2)CC1OC (centres unmarked) [cisapride] | 15 | –
CN1C[C@H](C(=O)N[C@]2(C)O[C@@]3(O)[C@@H]4CCCN4C(=O)[C@H](Cc4ccccc4)N3C2=O)C[C@@H]2c3cccc4[nH]cc(c34)C[C@H]21 [dihydroergotamine] | – | No. of currently known drug interactions that involve the compound, Inhibition [1]: 7
COc1ccc(C(=O)Nc2ccccc2CCC2CCCCN2C)cc1 (centres unmarked) [encainide] | 2 | –
CN1C[C@H](C(=O)N[C@]2(C)O[C@@]3(O)[C@@H]4CCCN4C(=O)[C@H](Cc4ccccc4)N3C2=O)C=C2c3cccc4[nH]cc(c34)C[C@H]21 [ergotamine] | – | No. of currently known drug interactions that involve the compound, Inhibition [1]: 7
O=C(NCC1CCCCN1)c1cc(OCC(F)(F)F)ccc1OCC(F)(F)F (centres unmarked) [flecainide] | 2 | –
OCCN1CCN(CCCN2c3ccccc3Sc3ccc(C(F)(F)F)cc32)CC1 [fluphenazine] | 1 | –
CC(C)n1c(/C=C/C(O)CC(O)CC(=O)O)c(-c2ccc(F)cc2)c2ccccc21 (centres unmarked) [fluvastatin] | 1 | –
CC[C@H](C)C(=O)O[C@H]1C[C@@H](C)C=C2C=C[C@H](C)[C@H](CC[C@@H]3C[C@@H](O)CC(=O)O3)[C@H]21 [lovastatin] | 5 | –
CN1CCCCC1CCN1c2ccccc2Sc2ccc([S+](C)[O-])cc21 (centres unmarked) [mesoridazine] | 1 | –
COc1ccc2c(c1)N(C[C@H](C)CN(C)C)c1ccccc1S2 [methotrimeprazine] | 1 | –
COc1ccc2[nH]c([S+]([O-])Cc3ncc(C)c(OC)c3C)nc2c1 (centres unmarked) [omeprazole] | 1 | –

Structure (SMILES) | No. of currently known drug interactions that involve the compound, Inhibition ([1]; inhibition of a P450) | also measured
OCCN1CCN(CCCN2c3ccccc3Sc3ccc(Cl)cc32)CC1 [perphenazine] | 1 | –
CCC(c1ccccc1)c1c(O)c2ccccc2oc1=O (centres unmarked) [phenprocoumon] | 1 | –
O=c1[nH]c2ccccc2n1C1CCN(CCCC(c2ccc(F)cc2)c2ccc(F)cc2)CC1 [pimozide] | 3 | –
CN1C(C(=O)Nc2ccccn2)=C(O)c2ccccc2S1(=O)=O [piroxicam] | 1 | –
CC[C@H](C)C(=O)O[C@H]1C[C@H](O)C=C2C=C[C@H](C)[C@H](CC[C@@H](O)C[C@@H](O)CC(=O)O)[C@H]21 [pravastatin] | 1 | –
O=C1CN=C(c2ccccc2)c2cc(Cl)ccc2N1CC1CC1 [prazapam] | – | No. of currently known drug interactions that involve the compound, Inhibition [1]: 2
CN(C)CCCN1c2ccccc2Sc2ccccc21 [promazine] | 1 | –
CC(CN1c2ccccc2Sc2ccccc21)N(C)C (centres unmarked) [promethazine] | 1 | –
CCC(=O)c1ccc2c(c1)N(CC(C)N(C)C)c1ccccc1S2 (centres unmarked) [propiomazine] | 1 | –
CCC(=O)O[C@](Cc1ccccc1)(c1ccccc1)[C@H](C)CN(C)C [propoxyphene] | – | No. of currently known drug interactions that involve the compound, Inhibition [1]: 1
CNCCCC1c2ccccc2C=Cc2ccccc21 [protriptyline] | 3 | –
CO[C@H]1/C=C/O[C@@]2(C)Oc3c(C)c(O)c4c(c3C2=O)C2=NC3(CCN(CC(C)C)CC3)NC2=C(NC(=O)/C(C)=C\C=C\[C@H](C)[C@H](O)[C@@H](C)[C@@H](O)[C@@H](C)[C@H](OC(C)=O)[C@@H]1C)C4=O [rifabutin] | 6 | –
CO[C@H]1/C=C/O[C@@]2(C)Oc3c(C)c(O)c4c(O)c(c(/C=N/N5CCN(C6CCCC6)CC5)c(O)c4c3C2=O)NC(=O)/C(C)=C\C=C\[C@H](C)[C@H](O)[C@@H](C)[C@@H](O)[C@@H](C)[C@H](OC(C)=O)[C@@H]1C [rifapentine] | 2 | –
CC(C)(C)NC(=O)[C@@H]1C[C@@H]2CCCC[C@@H]2CN1C[C@@H](O)[C@H](Cc1ccccc1)NC(=O)[C@H](CC(N)=O)NC(=O)c1ccc2ccccc2n1 [saquinavir] | 2 | –
CCSc1ccc2c(c1)N(CCCN1CCN(C)CC1)c1ccccc1S2 [thiethylperazine] | 1 | –
CC(C)(C)NC[C@H](O)COc1nsnc1N1CCOCC1 [timolol] | 1 | –
CCCCNC(=O)NS(=O)(=O)c1ccc(C)cc1 [tolbutamide] | 1 | –
CN1CCN(CCCN2c3ccccc3Sc3ccc(C(F)(F)F)cc32)CC1 [trifluoperazine] | 1 | –
CN(C)CCCN1c2ccccc2Sc2ccc(C(F)(F)F)cc21 [triflupromazine] | 1 | –
CCCC(CCC)C(=O)O [valproic acid] | 1 | –
CC[C@]1(O)C[C@@H]2CN(CCc3c([nH]c4ccccc34)[C@@](C(=O)OC)(c3cc4c(cc3OC)N(C)[C@H]3[C@@](O)(C(=O)OC)[C@H](OC(C)=O)[C@]5(CC)C=CCN6CC[C@]43[C@@H]65)C2)C1 [vinblastine] | 4 | –
CC[C@]1(O)C[C@H]2CN(CCc3c([nH]c4ccccc34)[C@@](C(=O)OC)(c3cc4c(cc3OC)N(C=O)[C@H]3[C@@](O)(C(=O)OC)[C@H](OC(C)=O)[C@]5(CC)C=CCN6CC[C@]43[C@@H]65)C2)C1 [vincristine] | 4 | –
